Reference: patent US20160272691A1, “COMPOSITIONS AND METHODS FOR TREATING CONDITIONS ASSOCIATED WITH y-[sequence]” (NDSU RESEARCH FOUNDATION, priority 2013, published 2016)
No end group written: not given here.

How the values were obtained:
M11 = target: T1, M11 (Murid herpesvirus 4, UniProt P89884); assay: Autophagy assay (GFP-LC3 puncta), M11-mediated down-regulation of autophagy in MCF7 cells; type: cell-based, murine γHV68; settings: cells that transiently express M11 in addition to Beclin 1; p=0.0010 treated versus untreated
T1 construct: expressed in transfected cells; host or cells: MCF7 human breast carcinoma cells
T1 sequence (P89884 whole entry, looked up): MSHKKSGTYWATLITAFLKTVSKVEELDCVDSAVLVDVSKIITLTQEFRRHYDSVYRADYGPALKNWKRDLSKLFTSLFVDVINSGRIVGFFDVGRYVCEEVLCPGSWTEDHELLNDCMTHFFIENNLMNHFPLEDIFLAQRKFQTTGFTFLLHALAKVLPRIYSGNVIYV
Procedure: (§1) Quantification of the fluorescent autophagosomes in MCF7 cells co-transfected with GFP-LC3 (1.6 μg), Beclin 1 (1.2 μg), and either Bcl-XL (1.2 μg) or M11(1.2 μg) expression plasmids (4 μg plasmids total) was done using an inverted AxioObserver (Zeiss). Cells were cultured in DMEM with 10% fetal calf serum (growth medium) in 8-well slides (Millipore) and transfected at 80% confluence with Lipofectamine (Invitrogen). After transfection, cells were either starved overnight in Earle's balanced salt solution (EBSS, starvation medium), or grown in nutrient-rich media with the addition of 2×EAA (essential amino acids) and 2×NEAA (nonessential amino acids) (nutrient rich medium) in the absence or presence of 1 mM peptides if indicated. The number of GFP-LC3 puncta per GFP-LC3 positive cell was assessed by counting a minimum of 50 cells via Image ProPlus for duplicate samples per condition in three independent experiments. The significance of alterations in autophagy levels were determined by a two-tailed, heteroscedastic student's t-test, wherein p≦0.05 is considered significant.
(§2) Lastly, whether the DM peptide would specifically prevent M11-mediated down-regulation, but not Bcl-XL-mediated down-regulation of Beclin 1-dependent autophagy in cells was investigated. […]

MCF7 cells = assay: Autophagy assay (GFP-LC3 puncta) in MCF7 cells without Bcl-XL or M11; type: cell-based, human
Procedure: as §1, §2

Bcl-XL = target: T2, Bcl-XL (Homo sapiens, UniProt Q07817); assay: Autophagy assay (GFP-LC3 puncta), Bcl-XL-mediated down-regulation of autophagy in MCF7 cells; type: cell-based; settings: cells that transiently express Bcl-XL in addition to Beclin 1; p=0.92294 treated versus untreated
T2 construct: expressed in transfected cells; host or cells: MCF7 human breast carcinoma cells
Procedure: as §1, §2

human Bcl-XL = target: T3, human Bcl-XL (Homo sapiens, UniProt Q07817, N52D/N66D); assay: Isothermal titration calorimetry, binding of Beclin 1 BH3D-derived peptides to Bcl-XL; settings: ITC
T3 construct: The His6-tagged Bcl-XL (residues 1-208, N52D, N66D) were expressed in E. coli; His6 (C); made in house; host or cells: E. coli BL21(DE3)pLysS
Description: (§3) Various Bcl-2 homologs lacking the C-terminal transmembrane helix were cloned and expressed to enable purification of soluble constructs identical to those used for previous structural studies. γHV68 M11 residues 1-136 was expressed and purified. The double mutant variant of Bcl-XL (N52D, N66D) was created by two rounds of site-directed mutagenesis using the QuikChange II Site-Directed Mutagenesis Kit (Agilent Technologies), then cloned, along with a C-terminal His6-tag for purification, into the NdeI and NotI restriction sites of pET 29b. The His6-tagged Bcl-XL (residues 1-208, N52D, N66D) were expressed in E. coli strain BL21(DE3)pLysS, and soluble protein in the cell lysate was purified to homogeneity by Immobilized Metal Affinity Chromatography using two 5 mL His-Select columns (GE Healthcare) linked in tandem, followed by Ion-Exchange Chromatography using a Mono Q HR 10/10 column (GE Healthcare) and Size-Exclusion Chromatography using a 16/60 preparative Superdex 75 column (GE Healthcare).
(§4) Various Beclin 1 BH3D-derived peptides, were chemically synthesized, and HPLC purified to >95% purity, with peptide purity confirmed by electrospray mass spectrometry (EZBioLabs/RSSynthesis/Protein Chemistry Technology Core at the University of Texas Southwestern Medical Center, Dallas).
(§5) Isothermal titration calorimetry was performed using a Nano ITC Low Volume (TA Instruments). For all ITC experiments, samples were loaded into separate dialysis cassettes, and dialyzed into ITC buffer. The ITC buffer for all experiments involving γHV68 M11 was 50 mM HEPES, pH 7.5, 250 mM NaCl and 2 mM β-mercaptoethanol and for human Bcl-XL was 25 mM HEPES, pH 7.5, 100 mM NaCl and 2 mM β-mercaptoethanol. ITC was performed at 25° C. with 25 injections of 2 μL each. Data were analyzed using NanoAnalyze Software (TA Instruments), with an independent model.

γHV68 M11 = target: T4, γHV68 M11 (Murid herpesvirus 4, UniProt P89884); assay: biochemical; type: binding, murine γHV68; settings: for ΔG, M11 / ΔH, M11 / ΔS, M11: ITC, 25° C., Table 1
T4 construct: γHV68 M11 residues 1-136 was expressed and purified; made in house
Description: as §3, §4, §5

T3 sequence (Q07817 1-208 N52D/N66D): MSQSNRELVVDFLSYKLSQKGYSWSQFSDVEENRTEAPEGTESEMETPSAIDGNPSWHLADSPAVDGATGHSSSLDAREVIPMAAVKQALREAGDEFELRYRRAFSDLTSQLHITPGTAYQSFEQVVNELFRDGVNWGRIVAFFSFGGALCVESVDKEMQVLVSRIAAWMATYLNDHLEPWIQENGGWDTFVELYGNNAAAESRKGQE
T2 sequence (Q07817 whole entry): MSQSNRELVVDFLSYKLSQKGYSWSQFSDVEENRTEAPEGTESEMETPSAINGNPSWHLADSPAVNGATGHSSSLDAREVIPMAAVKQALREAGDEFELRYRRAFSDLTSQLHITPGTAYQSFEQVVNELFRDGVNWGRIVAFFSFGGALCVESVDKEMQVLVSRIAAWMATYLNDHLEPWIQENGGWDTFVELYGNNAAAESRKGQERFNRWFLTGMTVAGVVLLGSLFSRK

Substance	autophagy levels compared to untreated cells (M11)	levels of autophagy (MCF7 cells; MCF7 cells, nutrient-rich or starvation conditions, peptide treatment)	autophagy levels relative to untreated cells (MCF7 cells; cells that express Beclin 1, but not Bcl-XL or M11, p=0.03383 treated versus untreated)	effect on autophagy compared to untreated cells (Bcl-XL)	ΔG, Bcl-XL (human Bcl-XL; 25° C., Table 1) [kcal/mol]	ΔH, Bcl-XL (human Bcl-XL; 25° C., Table 1) [kcal/mol]	ΔS, Bcl-XL (human Bcl-XL; 25° C., Table 1) [J/K · mol]	Kd (human Bcl-XL; 25° C., Table 1, cell "No" wraps to "Binding" in the next grid row (= No Binding)) [nM]	Kd (γHV68 M11) [nM]	ΔG, M11 (γHV68 M11) [kcal/mol]	ΔH, M11 (γHV68 M11) [kcal/mol]	ΔS, M11 (γHV68 M11) [J/K · mol]	TΔSapp for binding to M11, fold lower than for binding to Bcl-XL (γHV68 M11; M11 versus Bcl-XL) [fold]	ΔHapp for binding to M11, fold higher than for binding to Bcl-XL (γHV68 M11; M11 versus Bcl-XL) [fold]	binding to Bcl-XL (in words) (human Bcl-XL)	fold better binding to M11 compared to the G120E peptide (γHV68 M11; relative to G120E peptide) [fold]	fold weaker binding to M11 compared to WT (γHV68 M11; relative to WT BH3D) [fold]
TAT-DM peptide: HIV-1 TAT protein transduction domain attached via a diglycine linker to the N-terminus of the DM peptide (YGRKKRRQRRRGGGSGTMENLSRRLKVTEALFDIMSGQT)	markedly increases autophagy levels	did not increase levels of autophagy	only a slight elevation in autophagy levels	insignificant effect													
GSGTMENLSRRLKVTGDLFDIMSGQT [WT, reference compound]					-7.787 ± 0.055	-10.41 ± 0.344	−36.89 ± 4.53	1950 ± 190	1380 ± 410	-8.009 ± 0.17	-16.96 ± 1.53	−125.72 ± 22.53	~4	~2			
GSGTMENLSRRLKVTEALFDIMSGQT [G120E + D121A]									6430 ± 150	-7.079 ± 0.014	-14.9 ± 0.65	−109.81 ± 9.28			does not bind	~5.7	~4.7
